Data reported in patent publication US20240279236A1, “COMPOUNDS AND METHODS OF TREATING TUBERCULOSIS” (Fimbrion Therapeutics, Inc., priority 2021, published 2024).

system: WT Mtb Erdman strain; experiment: Microplate Alamar Blue Assay (MABA), Mtb growth inhibition; type: cell-based, Mycobacterium tuberculosis; settings: Mycobacterium tuberculosis, ERDMAN, 168 h, Middlebrook 7H9 media, 7 days at 37° C. in 5% CO2

Compared with `Cc1cc2c(N[C@@H]3C[C@H]3c3ccc(F)c(F)c3)nc(-c3cccc(N(C)C)c3)nc2s1` [Example 501, N-((1R,2S)-2-(3,4-difluorophenyl)cyclopropyl)-2-(3-(dimethylamino)phenyl)-6-methylthieno[2,3-d]pyrimidin-4-amine], `Cc1cc2c(NCCCc3ccc(-c4ccc(Cl)cc4)cc3)nc(N(C)C)nc2s1` [Example 531, N4-(3-(4′-chloro-[1,1′-biphenyl]-4-yl)propyl)-N2,N2,6-trimethylthieno[2,3-d]pyrimidine-2,4-diamine] is lower in IC50: > 10 µM for the first, 0.012 µM for the second.

First: FC(F)(F)c1ccc(CCCNc2nc(-c3ccccn3)nc3sccc23)cc1 [Example 30, 2-(pyridin-2-yl)-N-(3-(4-(trifluoromethyl)phenyl)propyl)thieno[2,3-d]pyrimidin-4-amine]
Second: Cc1cc2c(NCCCc3ccc(-c4ccc(C(F)(F)F)cn4)cc3)nc(-c3ccoc3)nc2s1 [Example 387, 2-(furan-3-yl)-6-methyl-N-(3-(4-[5-(trifluoromethyl)pyridin-2-yl]phenyl)propyl) thieno[2,3-d]pyrimidin-4-amine]
The IC50 of the first is 440-fold higher: 2.2 µM for the first, 0.005 µM for the second.

First: CCc1nc(NCCCc2ccco2)c2cc(C)sc2n1 [Example 24, 2-ethyl-N-(3-(furan-2-yl)propyl)-6-methylthieno[2,3-d]pyrimidin-4-amine]
Second: CCc1nc(NCCCc2ccccc2O)c2cc(C)sc2n1 [Example 588, 2-(3-((2-ethyl-6-methylthieno[2,3-d]pyrimidin-4-yl)amino)propyl)phenol]
The IC50 of the first is 4.4-fold lower: 1 µM for the first, 4.4 µM for the second. The first is the more potent here.

`Cc1cc2c(NCCCc3ccc(-c4ccc(OC(F)(F)F)cc4)cc3)nc(-c3cccn3C)nc2s1` [Example 440, 6-methyl-2-(1-methyl-1H-pyrrol-2-yl)-N-(3-(4′-(trifluoromethoxy)-[1,1′-biphenyl]-4-yl)propyl)thieno[2,3-d]pyrimidin-4-amine] and `Cc1cc2c(NCCCc3ccc(-c4ccc(OC(F)(F)F)cc4)cc3)nc(-c3c(C)noc3C)nc2s1` [Example 449, 2-(3,5-dimethylisoxazol-4-yl)-6-methyl-N-(3-(4′-(trifluoromethoxy)-[1,1′-biphenyl]-4-yl)propyl)thieno[2,3-d]pyrimidin-4-amine] cannot be ordered by IC50: 8.1 µM for the first, > 1 µM for the second.

First: Cc1cc2c(NCCCc3ccc(-c4ccc([N+](=O)[O-])cc4)cc3)nc(N3CCCC3)nc2s1 [Example 549, 6-methyl-N-(3-(4′-nitro-[1,1′-biphenyl]-4-yl)propyl)-2-(pyrrolidin-1-yl)thieno[2,3-d]pyrimidin-4-amine]
Second: CSc1nc(NCCCc2ccc(-c3ccc(C#N)cc3)cc2)c2cc(C)sc2n1 [Example 432, 4′-(3-((6-methyl-2-(methylthio)thieno[2,3-d]pyrimidin-4-yl)amino)propyl)-[1,1′-biphenyl]-4-carbonitrile]
The IC50 of the first is 2.1-fold higher: 0.029 µM for the first, 0.014 µM for the second.

Compared with `Cc1cc2c(NCCCc3ccc(C4CC4)cc3)nc(C(F)(F)F)nc2s1` [Example 237, N-(3-(4-cyclopropylphenyl)propyl)-6-methyl-2-(trifluoromethyl) thieno[2,3-d] pyrimidin-4-amine], `COC(=O)c1cccc(CCCNc2nc(C(F)(F)F)nc3sc(C)cc23)c1` [Example 229, methyl 3-(3-((6-methyl-2-(trifluoromethyl)thieno [2,3-d]pyrimidin-4-yl)amino)propyl) benzoate] is 3.3-fold higher in IC50: 1.8 µM for the first, 5.9 µM for the second.

Compared with `Cc1cc2c(NCCCc3ccc(-c4ncc(F)cn4)cc3)nc(-c3ccoc3)nc2s1` [Example 402, N-(3-[4-(5-fluoropyrimidin-2-yl)phenyl]propyl)-2-(furan-3-yl)-6-methylthieno[2,3-d]pyrimidin-4-amine], `Cc1cc2c(NCCCc3ccc(-c4cncc(C(F)(F)F)n4)cc3)nc(-c3ccoc3)nc2s1` [Example 383, 2-(furan-3-yl)-6-methyl-N-(3-(4-[6-(trifluoromethyl)pyrazin-2-yl]phenyl)propyl) thieno[2,3-d]pyrimidin-4-amine] is 29-fold higher in IC50: 0.008 µM for the first, 0.23 µM for the second.

First: Cc1cc2c(NC/C=C/c3ccccc3)nc(C(F)(F)F)nc2s1 [Example 152, N-cinnamyl-6-methyl-2-(trifluoromethyl) thieno[2,3-d] pyrimidin-4-amine]
Second: Cc1cc2c(NCCC(O)c3ccccc3)nc(C(F)(F)F)nc2s1 (stereo not drawn) [Example 171, 3-((6-methyl-2-(trifluoromethyl)thieno [2,3-d]pyrimidin-4-yl)amino)-1-phenylpropan-1-ol]
The IC50 of the first is lower: 0.44 µM for the first, > 9.5 µM for the second.

Compared with `CCc1nc(NCCCc2ccc(Cl)cc2)c2cc(C)sc2n1` [Example 257, N-(3-(4-chlorophenyl)propyl)-2-ethyl-6-methylthieno[2,3-d]pyrimidin-4-amine], `CCc1nc(NCCCc2ccc(N=[N+]=[N-])cc2)c2cc(C)sc2n1` [Example 591, N-(3-(4-azidophenyl)propyl)-2-ethyl-6-methylthieno[2,3-d]pyrimidin-4-amine] is higher in IC50: 0.14 µM for the first, > 10 µM for the second.

Compared with `Cc1cc2c(NCCCc3ccccn3)nc(C(F)(F)F)nc2s1` [Example 159, 6-methyl-N-(3-(pyridin-2-yl)propyl)-2-(trifluoromethyl)thieno [2,3-d]pyrimidin-4-amine], `Cc1cc(-c2nc(NCCCc3ccc(OC(F)(F)F)cc3)c3cc(C)sc3n2)no1` [Example 122, 6-methyl-2-(5-methylisoxazol-3-yl)-N-(3-(4-(trifluoromethoxy)phenyl)propyl)thieno [2,3-d]pyrimidin-4-amine] is lower in IC50: > 10 µM for the first, 0.19 µM for the second.

First: CCc1nc(NCCCc2ccc(-c3ccc(S(C)(=O)=O)cc3)cc2)c2cc(C)sc2n1 [Example 272, 2-ethyl-6-methyl-N-(3-(4′-(methylsulfonyl)-[1,1′-biphenyl]-4-yl)propyl)thieno [2,3-d]pyrimidin-4-amine]
Second: CCc1nc(NCCCc2ccc(-c3ccc(NC(C)=O)cc3)cc2)c2cc(C)sc2n1 [Example 279, N-(4′-(3-((2-ethyl-6-methylthieno[2,3-d]pyrimidin-4-yl)amino)propyl)-[1,1′-biphenyl]-4-yl)acetamide]
The IC50 of the first is 4.1-fold lower: 0.27 µM for the first, 1.1 µM for the second. The first is the more potent here.

First: Cc1cc2c(NCCCc3ccc(-c4ccc(C5CC5)cc4)cc3)nc(-c3ccoc3)nc2s1 [Example 429, N-(3-(4′-cyclopropyl-[1,1′-biphenyl]-4-yl)propyl)-2-(furan-3-yl)-6-methylthieno[2,3-d]pyrimidin-4-amine]
Second: Cc1cc2c(NCCCc3ccc(-c4ccc(C(=O)O)cc4)cc3)nc(-c3ccoc3)nc2s1 [Example 601, 4′-(3-((2-(furan-3-yl)-6-methylthieno[2,3-d]pyrimidin-4-yl)amino)propyl)-[1,1′-biphenyl]-4-carboxylic acid]
The IC50 of the first is 26-fold lower: 0.02 µM for the first, 0.53 µM for the second.

First: Cc1cc2c(NCCCc3ccc(-c4ccc(OC(F)(F)F)cn4)cc3)nc(-c3ccoc3)nc2s1 [Example 388, 2-(furan-3-yl)-6-methyl-N-(3-(4-[5-(trifluoro-methoxy)pyridin-2-yl]phenyl)propyl)thieno[2,3-d]pyrimidin-4-amine]
Second: Cc1cc2c(NCCCc3ccc(-c4cccc(C#N)c4)cc3)nc(-c3ccoc3)nc2s1 [Example 327, 4′-(3-([2-(furan-3-yl)-6-methylthieno[2,3-d]pyrimidin-4-yl]amino)propyl)-[1,1′-biphenyl]-3-carbonitrile]
The IC50 of the first is 14-fold lower: 0.007 µM for the first, 0.1 µM for the second. The first is the more potent here.

Compound `Cc1cc2c(NCCCc3ccc(-c4cccc([N+](=O)[O-])c4)cc3)nc(-c3ccoc3)nc2s1` [Example 340, 2-(furan-3-yl)-6-methyl-N-(3-(3′-nitro-[1,1′-biphenyl]-4-yl)propyl)thieno [2,3-d]pyrimidin-4-amine] has an IC50 of 0.025 µM.
